#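 Method: 48-hour compound exposure of cells in 96-well plates, five concentrations, linear interpolation of endpoints. TGI: total growth inhibition.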
# What was measured:
# Experiment in all cases: NCI-60 cell line screen, 48 h
# 786-0 renal = tested on: 786-0 renal
# A498 renal = tested on: A498 renal
# A549 NSCLC = tested on: A549 NSCLC
# ACHN renal = tested on: ACHN renal
# BT-549 breast = tested on: BT-549 breast
# CAKI-1 renal = tested on: CAKI-1 renal
# CCRF-CEM leukemia = tested on: CCRF-CEM leukemia
# COLO 205 colon = tested on: COLO 205 colon
# DU-145 prostate = tested on: DU-145 prostate
# EKVX NSCLC = tested on: EKVX NSCLC
# HCC-2998 colon = tested on: HCC-2998 colon
# HCT-116 colon = tested on: HCT-116 colon
# HCT-15 colon = tested on: HCT-15 colon
# HL-60(TB) leukemia = tested on: HL-60(TB) leukemia
# HOP-62 NSCLC = tested on: HOP-62 NSCLC
# HOP-92 NSCLC = tested on: HOP-92 NSCLC
# HS 578T breast = tested on: HS 578T breast
# HT29 colon = tested on: HT29 colon
# IGROV1 ovarian = tested on: IGROV1 ovarian
# K-562 leukemia = tested on: K-562 leukemia
# KM12 colon = tested on: KM12 colon
# LOX IMVI melanoma = tested on: LOX IMVI melanoma
# M14 melanoma = tested on: M14 melanoma
# MALME-3M melanoma = tested on: MALME-3M melanoma
# MCF7 breast = tested on: MCF7 breast
# MDA-MB-231 breast = tested on: MDA-MB-231 breast
# MDA-MB-435 = tested on: MDA-MB-435
# MDA-N = tested on: MDA-N
# MOLT-4 leukemia = tested on: MOLT-4 leukemia
# NCI-H226 lung = tested on: NCI-H226 lung
# NCI-H23 lung = tested on: NCI-H23 lung
# NCI-H460 lung = tested on: NCI-H460 lung
# NCI-H522 lung = tested on: NCI-H522 lung
# NCI/ADR-RES ovarian = tested on: NCI/ADR-RES ovarian
# OVCAR-3 ovarian = tested on: OVCAR-3 ovarian
# OVCAR-4 ovarian = tested on: OVCAR-4 ovarian
# OVCAR-5 ovarian = tested on: OVCAR-5 ovarian
# OVCAR-8 ovarian = tested on: OVCAR-8 ovarian
# PC-3 prostate = tested on: PC-3 prostate
# RPMI-8226 leukemia = tested on: RPMI-8226 leukemia
# RXF 393 renal = tested on: RXF 393 renal
# SF-268 CNS = tested on: SF-268 CNS
# SF-295 CNS = tested on: SF-295 CNS
# SF-539 CNS = tested on: SF-539 CNS
# SK-MEL-2 melanoma = tested on: SK-MEL-2 melanoma
# SK-MEL-28 melanoma = tested on: SK-MEL-28 melanoma
# SK-MEL-5 melanoma = tested on: SK-MEL-5 melanoma
# SK-OV-3 ovarian = tested on: SK-OV-3 ovarian
# SN12C renal = tested on: SN12C renal
# SNB-19 CNS = tested on: SNB-19 CNS
# SNB-75 CNS = tested on: SNB-75 CNS
# SR leukemia = tested on: SR leukemia
# SW-620 colon = tested on: SW-620 colon
# T-47D breast = tested on: T-47D breast
# TK-10 renal = tested on: TK-10 renal
# U251 CNS = tested on: U251 CNS
# UACC-257 melanoma = tested on: UACC-257 melanoma
# UACC-62 melanoma = tested on: UACC-62 melanoma
# UO-31 renal = tested on: UO-31 renal
# DLD-1 colon = tested on: DLD-1 colon
# DMS 114 small cell lung = tested on: DMS 114 small cell lung
# DMS 273 small cell lung = tested on: DMS 273 small cell lung
# LXFL 529 NSCLC = tested on: LXFL 529 NSCLC
# M19-MEL melanoma = tested on: M19-MEL melanoma
# SNB-78 CNS = tested on: SNB-78 CNS
smiles,measurement,setting,value
C=C(C)[C@@H]1CC[C@]2(C(=O)O)CC[C@]3(C)[C@H](CC[C@@H]4[C@@]5(C)CC(=O)C(C)(C)[C@@H]5CC[C@]43C)[C@@H]12,TGI,786-0 renal,> 25 µM
same,TGI,A498 renal,17.2 µM
same,TGI,A549 NSCLC,> 25 µM
same,TGI,ACHN renal,> 25 µM
same,TGI,BT-549 breast,> 25 µM
same,TGI,CAKI-1 renal,> 25 µM
same,TGI,CCRF-CEM leukemia,2.86 µM
same,TGI,COLO 205 colon,8.71 µM
same,TGI,DU-145 prostate,> 25 µM
same,TGI,EKVX NSCLC,> 25 µM
same,TGI,HCC-2998 colon,12 µM
same,TGI,HCT-116 colon,8.83 µM
same,TGI,HCT-15 colon,> 25 µM
same,TGI,HL-60(TB) leukemia,1.61 µM
same,TGI,HOP-62 NSCLC,> 25 µM
same,TGI,HOP-92 NSCLC,> 25 µM
same,TGI,HS 578T breast,> 25 µM
same,TGI,HT29 colon,> 25 µM
same,TGI,IGROV1 ovarian,> 25 µM
same,TGI,K-562 leukemia,> 25 µM
same,TGI,KM12 colon,> 25 µM
same,TGI,LOX IMVI melanoma,> 25 µM
same,TGI,M14 melanoma,> 25 µM
same,TGI,MALME-3M melanoma,> 25 µM
same,TGI,MCF7 breast,> 25 µM
same,TGI,MDA-MB-231 breast,14.3 µM
same,TGI,MDA-MB-435,> 25 µM
same,TGI,MDA-N,> 25 µM
same,TGI,MOLT-4 leukemia,14.5 µM
same,TGI,NCI-H226 lung,> 25 µM
same,TGI,NCI-H23 lung,> 25 µM
same,TGI,NCI-H460 lung,10.7 µM
same,TGI,NCI-H522 lung,19.7 µM
same,TGI,NCI/ADR-RES ovarian,> 25 µM
same,TGI,OVCAR-3 ovarian,21.4 µM
same,TGI,OVCAR-4 ovarian,> 25 µM
same,TGI,OVCAR-5 ovarian,> 25 µM
same,TGI,OVCAR-8 ovarian,> 25 µM
same,TGI,PC-3 prostate,19.7 µM
same,TGI,RPMI-8226 leukemia,11.6 µM
same,TGI,RXF 393 renal,> 25 µM
same,TGI,SF-268 CNS,> 25 µM
same,TGI,SF-295 CNS,> 25 µM
same,TGI,SF-539 CNS,14.7 µM
same,TGI,SK-MEL-2 melanoma,9.71 µM
same,TGI,SK-MEL-28 melanoma,> 25 µM
same,TGI,SK-MEL-5 melanoma,13.3 µM
same,TGI,SK-OV-3 ovarian,> 25 µM
same,TGI,SN12C renal,13.6 µM
same,TGI,SNB-19 CNS,> 25 µM
same,TGI,SNB-75 CNS,> 25 µM
same,TGI,SR leukemia,12.3 µM
same,TGI,SW-620 colon,> 25 µM
same,TGI,T-47D breast,> 25 µM
same,TGI,TK-10 renal,> 25 µM
same,TGI,U251 CNS,> 25 µM
same,TGI,UACC-257 melanoma,22.3 µM
same,TGI,UACC-62 melanoma,6.66 µM
same,TGI,UO-31 renal,16.4 µM
CC1=CCC[C@@]2(C)C(CC[C@@H]2C(C)/C=C/C(C)C)c2ccc(cc2C(=O)O)C[C@@H](O)CC1 (stereo partly specified),TGI,786-0 renal,27.9 µM
same,TGI,A498 renal,35.3 µM
same,TGI,A549 NSCLC,20.3 µM
same,TGI,ACHN renal,18.7 µM
same,TGI,CAKI-1 renal,32.9 µM
same,TGI,CCRF-CEM leukemia,20.8 µM
same,TGI,DLD-1 colon,14 µM
same,TGI,DMS 114 small cell lung,40.3 µM
same,TGI,DMS 273 small cell lung,34.2 µM
same,TGI,HCC-2998 colon,23.5 µM
same,TGI,HCT-116 colon,20.7 µM
same,TGI,HCT-15 colon,18.5 µM
same,TGI,HL-60(TB) leukemia,31.2 µM
same,TGI,HOP-62 NSCLC,36.5 µM
same,TGI,HOP-92 NSCLC,28.9 µM
same,TGI,HT29 colon,17.6 µM
same,TGI,IGROV1 ovarian,27.9 µM
same,TGI,K-562 leukemia,26.4 µM
same,TGI,KM12 colon,24.8 µM
same,TGI,LOX IMVI melanoma,19 µM
same,TGI,LXFL 529 NSCLC,23.9 µM
same,TGI,M14 melanoma,34 µM
same,TGI,M19-MEL melanoma,29.6 µM
same,TGI,MALME-3M melanoma,37.7 µM
same,TGI,MOLT-4 leukemia,28 µM
same,TGI,NCI-H226 lung,32.7 µM
same,TGI,NCI-H460 lung,20.1 µM
same,TGI,NCI-H522 lung,29.8 µM
same,TGI,OVCAR-3 ovarian,26.8 µM
same,TGI,OVCAR-4 ovarian,25.6 µM
same,TGI,OVCAR-5 ovarian,30 µM
same,TGI,OVCAR-8 ovarian,33.3 µM
same,TGI,RPMI-8226 leukemia,19.7 µM
same,TGI,RXF 393 renal,30 µM
same,TGI,SF-268 CNS,29.7 µM
same,TGI,SF-295 CNS,21.7 µM
same,TGI,SF-539 CNS,21 µM
same,TGI,SK-MEL-2 melanoma,37.5 µM
same,TGI,SK-MEL-28 melanoma,28.4 µM
same,TGI,SK-MEL-5 melanoma,12.5 µM
same,TGI,SK-OV-3 ovarian,32.3 µM
same,TGI,SN12C renal,30.4 µM
same,TGI,SNB-19 CNS,17.5 µM
same,TGI,SNB-75 CNS,27.4 µM
same,TGI,SNB-78 CNS,34.5 µM
same,TGI,SR leukemia,33 µM
same,TGI,SW-620 colon,32.2 µM
same,TGI,TK-10 renal,25.1 µM
same,TGI,U251 CNS,16 µM
same,TGI,UACC-257 melanoma,30.5 µM
same,TGI,UACC-62 melanoma,23 µM
same,TGI,UO-31 renal,29.2 µM
Cc1c2cc(Cl)ccc2n2c(=O)c3ccccc3[nH]c(=O)c12,TGI,786-0 renal,> 100 µM
same,TGI,CAKI-1 renal,> 100 µM
same,TGI,CCRF-CEM leukemia,> 100 µM
same,TGI,COLO 205 colon,> 100 µM
same,TGI,DLD-1 colon,> 100 µM
same,TGI,DMS 114 small cell lung,> 100 µM
same,TGI,DMS 273 small cell lung,> 100 µM
same,TGI,HCC-2998 colon,> 100 µM
same,TGI,HCT-116 colon,> 100 µM
same,TGI,HOP-62 NSCLC,> 100 µM
same,TGI,HOP-92 NSCLC,> 100 µM
same,TGI,IGROV1 ovarian,> 100 µM
same,TGI,K-562 leukemia,> 100 µM
same,TGI,LXFL 529 NSCLC,> 100 µM
same,TGI,M14 melanoma,> 100 µM
same,TGI,M19-MEL melanoma,> 100 µM
same,TGI,MALME-3M melanoma,> 100 µM
same,TGI,MOLT-4 leukemia,> 100 µM
same,TGI,NCI-H226 lung,> 100 µM
same,TGI,NCI-H23 lung,> 100 µM
same,TGI,NCI-H522 lung,> 100 µM
same,TGI,OVCAR-4 ovarian,> 100 µM
same,TGI,RPMI-8226 leukemia,> 100 µM
same,TGI,SF-268 CNS,> 100 µM
same,TGI,SF-539 CNS,> 100 µM
same,TGI,SK-MEL-2 melanoma,> 100 µM
same,TGI,SK-MEL-28 melanoma,> 100 µM
same,TGI,SK-OV-3 ovarian,> 100 µM
same,TGI,SNB-75 CNS,> 100 µM
same,TGI,SNB-78 CNS,> 100 µM
same,TGI,SR leukemia,> 100 µM
same,TGI,UACC-62 melanoma,> 100 µM
same,TGI,UO-31 renal,> 100 µM
CCCNC1CC(n2cc(C)c(=O)[nH]c2=O)OC1CO (stereo unspecified),TGI,786-0 renal,> 100 µM
same,TGI,ACHN renal,> 100 µM
same,TGI,CAKI-1 renal,> 100 µM
same,TGI,CCRF-CEM leukemia,> 100 µM
same,TGI,COLO 205 colon,> 100 µM
same,TGI,DLD-1 colon,> 100 µM
same,TGI,DMS 114 small cell lung,> 100 µM
same,TGI,DMS 273 small cell lung,> 100 µM
same,TGI,HCC-2998 colon,> 100 µM
same,TGI,HCT-116 colon,> 100 µM
same,TGI,HL-60(TB) leukemia,> 100 µM
same,TGI,HOP-62 NSCLC,> 100 µM
same,TGI,HOP-92 NSCLC,> 100 µM
same,TGI,IGROV1 ovarian,> 100 µM
same,TGI,K-562 leukemia,> 100 µM
same,TGI,LXFL 529 NSCLC,> 100 µM
same,TGI,M14 melanoma,> 100 µM
same,TGI,M19-MEL melanoma,> 100 µM
same,TGI,MALME-3M melanoma,> 100 µM
same,TGI,MOLT-4 leukemia,> 100 µM
same,TGI,NCI-H226 lung,> 100 µM
same,TGI,NCI-H23 lung,> 100 µM
same,TGI,NCI-H460 lung,> 100 µM
same,TGI,NCI-H522 lung,> 100 µM
same,TGI,OVCAR-4 ovarian,> 100 µM
same,TGI,RPMI-8226 leukemia,> 100 µM
same,TGI,SF-268 CNS,> 100 µM
same,TGI,SF-539 CNS,> 100 µM
same,TGI,SK-MEL-2 melanoma,> 100 µM
same,TGI,SK-MEL-28 melanoma,> 100 µM
same,TGI,SK-OV-3 ovarian,> 100 µM
same,TGI,SN12C renal,> 100 µM
same,TGI,SNB-75 CNS,> 100 µM
same,TGI,SNB-78 CNS,> 100 µM
same,TGI,SR leukemia,> 100 µM
same,TGI,UACC-62 melanoma,> 100 µM
same,TGI,UO-31 renal,> 100 µM
